Assay results: EP1591123A1, “USES OF NARINGENIN, NARINGIN AND SALTS THEREOF AS EXPECTORANTS IN THE TREATMENT OF COUGH, AND COMPOSITIONS THEREOF” (Su, Wei-wei, priority 2003, dated 2004)
Entries after “also recorded” stand apart in the source; their conditions may differ. Where a name gives a salt, the structure may show the parent alone.

Legend:
mice = assay: Dispel phlegm test of Naringenin, Phenol Red excretion in trachea (Example 31); assay type: in vivo; conditions: for Dispel phlegm ratio: group given drug / blank control group x 100%; for Excretion quantity of Phenol Red / Rectified excretion quantity of Phenol Red: mice, oral, X±S; for Rectified excretion quantity of Phenol Red: excretion quantity / weight of animal
Excerpt: • 1. Animal: 80 healthy female mice weighing 18.5-22.0g was grouped into 8 groups random after labeled, which was selected from 90 female mice weighing 18.0-22.1g. Every group was 10 mice. Eight groups were set including negative control group, positive control group, high dose group of Naringenin, middle dose group of Naringenin, low dose group of Naringenin, high dose group of sodium salt of Naringenin, middle dose group of sodium salt of Naringenin, low dose group of sodium salt of Naringenin. […] Sample source and preparation • 1) Blank control group: physiological saline, 0.9% NaCl; • 2) Positive control group: 0.2g Tankejing was dissolve into 10 ml 0.9% NaCl and the sample concentration was 20 mg/ml to obtain the solution for positive control. • 3) low dose group of Naringenin: 0.5 mg/ml solution of Naringenin was prepared by weighting out the appropriate amount of 5 mg Naringenin and dissolving it by ultrasonication in 10 ml physiological saline. • 4) middle dose group of Naringenin: 1.5 mg/ml solution of Naringenin was prepared by weighting out the appropriate amount of 15 mg Naringenin and dissolving it by ultrasonication in 10 ml physiological saline. • 5) high dose group of Naringenin: 4.5 mg/ml solution of Naringenin was prepared by weighting out the appropriate amount of 45 mg Naringenin and dissolving it by ultrasonication in 10 ml physiological saline. • 6) low dose group of sodium salt of Naringenin: 0.5 mg/ml solution of sodium salt of Naringenin was prepared by weighting out the appropriate amount of 5 mg sodium salt of Naringenin and dissolving it by ultrasonication in 10 ml physiological saline. • 7) middle dose group of sodium salt of Naringenin: 1.5 mg/ml solution of sodium salt of Naringenin was prepared by weighting out the appropriate amount of 15 mg sodium salt of Naringenin and dissolving it by ultrasonication in 10 ml physiological saline. • 8) high dose group of sodium salt of Naringenin: 4.5 mg/ml solution of sodium salt of Naringenin was prepared by weighting out the appropriate amount of 45 mg sodium salt of Naringenin and dissolving it by ultrasonication in 10 ml physiological saline. • 3. Experimental Method: • 1) preparations of Phenol Red calibration standard: 12.5 ng/ml solution of Phenol Red was prepared by weighting out the appropriate amount of Phenol Red and dissolving it by ultrasonication in 5% NaHCO3. The series solution including 6.25ng/ml, 3.125ng/ml, 1.5625 ng/ml, 0.7813 ng/ml, 0.3906 ng/ml, 0.1953 ng/ml, 0.0977 ng/ml, 0.0488 ng/ml was prepared by diluting, which was detected by ultraviolet spectrometer. The calibration curve was calculated by concentration of Phenol Red as y-axis and OD value as x-axis. And the excretion account of Phenol Red in mice was quantitated by calibration curve. • 2) Animals were fasted for 12 hr before dosing. • 3) Animals were oral administered with labeled number, each animal was administered with 3 min and each group was accomplished in 30 min. • 4) After administered 30 min, every animal was injected 2 ml 5% Phenol Red solution via celiac injection. The time of every animal was 3 min. • 5) Every animal was executed with 3 min interval after celiac injection 30 min, and animal trachea was peeled off with forceps after neck skin sniped, which was riveted on operating table. • 6) plasma and Phenol Red adhered to trachea ektexine was sweeped by 0.9% NaCl solution with an injector. And filter paper was used to blot up the solution. • 7) Scissors cut down the animal trachea including thyroid cartilage and trachea back-end. • 8) The trachea was set in test tube with 1.5 ml 5% NaHCO3. • 9) The experiment of every animal was completed in 3 min. […]

NIH little mice = assay: Toxicological experiment, single oral dose, 10 days observation (Examples 32-35); assay type: in vivo; conditions: for dosage without toxic reaction as multiple of the normal dosage: oral dosage tested relative to normal dose for human beings; for changes in little mice's weight / toxic reaction / deaths of little mice / pathological inspection of each apparatus: oral; for changes in little mice's weight / toxic reaction: ten days; for deaths of little mice / pathological inspection of each apparatus: tenth day
Procedure: (§1) With temperature in the range of 24±1 °C and humidity in the range of 65±5 %,choose 20 NIH little mice which are 7-8 years old ,healthy and clean, male and female for each half ,their weights are between 20 and 22 gram.. Antisepsis the feed and water, before and in the layoff period of the test, all the mice should be feed under the normal feeding condition.
(§2) Dissolve Naringin in 0.5 % Tween80, the concentration is 300mg/ml,this liquor is given to little mice by oral access, the dosage is 0.2ml/20g weight of little mice. After administration ,they are observed for 1,4,8,12 hours, and then once per 12 hours. Observe the deaths of little mice ,and record the changes in little mice's weight as well as other symptoms. In the tenth day, kill little mice by breaking their necks, and take each apparatus for pathological inspection.
as §1, with “of 25±1” for “of 24±1”, “of 75±5” for “of 65±5”, “[…], healthy” for “years old ,healthy”, “half , their” for “half ,their”, “between 18.5” for “between 20”, “and 20.5” for “and 22”
as §2, with “Naringin sodium salt medicine” for “Naringin”, “in brine,” for “in 0.5 % Tween80,”, “is 300mg/ml, this” for “is 300mg/ml,this”, “little mice, and” for “little mice ,and”, “mice's weights” for “mice's weight”, “pathological inspection.. […]” for “pathological inspection.”

| SMILES | Dispel phlegm ratio (mice; 5 mg/kg) [%] | Dispel phlegm ratio (mice; 15 mg/kg) [%] | Dispel phlegm ratio (mice; 45 mg/kg) [%] | Excretion quantity of Phenol Red (mice; 5 mg/kg) [ng] | Rectified excretion quantity of Phenol Red (mice; 5 mg/kg) [ng/kg] | Excretion quantity of Phenol Red (mice; 15 mg/kg) [ng] | Rectified excretion quantity of Phenol Red (mice; 15 mg/kg) [ng/kg] | Excretion quantity of Phenol Red (mice; 45 mg/kg) [ng] | Rectified excretion quantity of Phenol Red (mice; 45 mg/kg) [ng/kg] | dosage without toxic reaction as multiple of the normal dosage (NIH little mice) | changes in little mice's weight (NIH little mice; 6.0g/kg) | toxic reaction (NIH little mice; 6.0g/kg) | deaths of little mice (NIH little mice; 6.0g/kg) | pathological inspection of each apparatus (NIH little mice; 6.0g/kg) | changes in little mice's weight (NIH little mice; 3.0g/kg) | deaths of little mice (NIH little mice; 3.0g/kg) | pathological inspection of each apparatus (NIH little mice; 3.0g/kg) | also measured |
| --- | --- | --- | --- | --- | --- | --- | --- | --- | --- | --- | --- | --- | --- | --- | --- | --- | --- | --- |
| O=C1CC(c2ccc(O)cc2)Oc2cc(O)cc(O)c21 (stereo not shown) [Naringenin, 4', 5, 7 -trihydroxyflavanone] | 146.13 | 159.97 | 219.85 | 1.2757 ± 0.4020 | 68.2832 ± 23.6102 | 1.3523 ± 0.9303 | 74.7504 ± 57.2020 | 1.9257 ± 0.6713 | 102.7325 ± 41.0313 | 460 | weights of little mice are not found lightening | toxic reaction can't be found; also recorded: hasn't toxic reaction | all little mice are still alive | pathological changes have not been found | – | – | – | dispel phlegm effect (mice; high dose group compared to positive control group of Tankejing): statistical better than Tankejing; exudates increase of mice trachea (mice; three doses (low, middle, high), versus negative control group): statistical significance stimulate the exudates increase of mice trachea |
| C[C@@H]1O[C@@H](O[C@H]2[C@H](Oc3cc(O)c4c(c3)O[C@H](c3ccc(O)cc3)CC4=O)O[C@H](CO)[C@@H](O)[C@@H]2O)[C@H](O)[C@H](O)[C@H]1O [Naringin, 4', 5', 7-trihydroxyflavanone-7-rhamnoneglucoside] | – | – | – | – | – | – | – | – | – | 230 | – | – | – | – | weights of little mice are not found lightening | all little mice are still alive | pathological changes have not been found | toxic reaction (NIH little mice; 3.0g/kg): toxic reaction can't be found; also recorded: haven't toxic reaction |
| O=C1C[C@@H](c2ccc(O)cc2)Oc2cc(O)cc(O)c21 [sodium salt of Naringenin] | 148.72 | 162.38 | 224.93 | 1.3029 ± 0.3069 | 69.4942 ± 16.3724 | 1.4225 ± 0.7361 | 75.8773 ± 39.2651 | 1.9705 ± 0.6898 | 105.1057 ± 36.7945 | 460 | weights of little mice are not found lightening | toxic reaction can't be found | all the little mice are still alive | pathological changes have not been found | – | – | – | – |
| C[C@@H]1O[C@@H](O[C@H]2[C@H](Oc3cc(O)c4c(c3)O[C@H](c3ccc(O)cc3)CC4=O)O[C@H](CO)[C@@H](O)[C@@H]2O)[C@H](O)[C@H](O)[C@H]1O [sodium salt of Naringin] | – | – | – | – | – | – | – | – | – | 230 | – | – | – | – | weights of little mice are not found lightening | all little mice are still alive | pathological changes have not been found | toxic reaction (NIH little mice; 3.0g/kg, listed as Naringin sodium salt): toxic reaction can't be found |
